This note sets out measurements from ChEMBL document CHEMBL1136019, “Structure-based optimisation of 2-aminobenzylstatine derivatives: potent and selective inhibitors of the chymotrypsin-like activity of the human 20S proteasome” (Bioorg Med Chem Lett, 2002).

The target of the test is 20S proteasome. As to the kind of experiment: Tested in vitro for inhibition of chymotrypsin like activity of purified human 20S proteasome. The format is subcellular.
The IC50 is the concentration that gives 50% inhibition. `COc1ccc(CN[C@@H](C(=O)N[C@H](C(=O)NCc2ccc(OC)cc2O)C(C)C)[C@H](O)[C@H](Cc2ccccc2)NC(=O)[C@@H](NC(=O)OCc2ccccc2)C(C)(C)C)cc1` yielded a 50% inhibitory concentration (IC50) of 900 nM. Under `COc1ccc(CNC(=O)[C@@H](NC(=O)[C@H](NCc2ccc(Oc3ccccc3)cc2)[C@H](O)[C@H](Cc2ccccc2)NC(=O)[C@@H](NC(=O)OCc2ccccc2)C(C)(C)C)C(C)C)c(O)c1` stands over 20000 nM. Under `COc1cccc(CN[C@@H](C(=O)N[C@H](C(=O)NCc2ccc(OC)cc2O)C(C)C)[C@H](O)[C@H](Cc2ccccc2)NC(=O)[C@@H](NC(=O)OCc2ccccc2)C(C)(C)C)c1` stands 1500 nM; under `COc1ccc(CNC(=O)[C@@H](NC(=O)[C@H](NCc2ccc(OC)c(OC)c2)[C@H](O)[C@H](Cc2ccccc2)NC(=O)[C@@H](NC(=O)OCc2ccccc2)C(C)(C)C)C(C)C)c(O)c1`, 150 nM; under `COc1ccc(CNC(=O)[C@@H](NC(=O)[C@H](NCc2ccc(N(C)C)cc2)[C@H](O)[C@H](Cc2ccccc2)NC(=O)[C@@H](NC(=O)Cc2cccc3ccccc23)C(C)(C)C)C(C)C)c(O)c1`, 160 nM. To `COc1ccc(CNC(=O)[C@@H](NC(=O)[C@H](NCc2ccc(C(C)C)cc2)[C@H](O)[C@H](Cc2ccccc2)NC(=O)[C@@H](NC(=O)OCc2ccccc2)C(C)(C)C)C(C)C)c(O)c1` belongs 1600 nM; to `COc1ccc(CNC(=O)[C@@H](NC(=O)[C@H](NCc2ccc(-c3ccccc3)cc2)[C@H](O)[C@H](Cc2ccccc2)NC(=O)[C@@H](NC(=O)OCc2ccccc2)C(C)(C)C)C(C)C)c(O)c1`, over 20000 nM; to `COc1ccc(CNC(=O)[C@@H](NC(=O)[C@H](NCc2cc(OC)c(OC)cc2OC)[C@H](O)[C@H](Cc2ccccc2)NC(=O)[C@@H](NC(=O)OCc2ccccc2)C(C)(C)C)C(C)C)c(O)c1`, 200 nM. `COc1ccc(CNC(=O)[C@@H](NC(=O)[C@H](NCc2cc(OC)c(OC)c(OC)c2)[C@H](O)[C@H](Cc2ccccc2)NC(=O)[C@@H](NC(=O)OCc2ccccc2)C(C)(C)C)C(C)C)c(O)c1` showed a concentration for half-maximal inhibition (IC50) of 50 nM. To `COc1ccc(CNC(=O)[C@@H](NC(=O)[C@H](NCc2ccc(OC)c(OC)c2OC)[C@H](O)[C@H](Cc2ccccc2)NC(=O)[C@@H](NC(=O)Cc2cccc3ccccc23)C(C)(C)C)C(C)C)c(O)c1` belongs 18 nM; to `COc1ccc(CN[C@@H](C(=O)N[C@H](C(=O)NCc2ccc(OC)cc2O)C(C)C)[C@H](O)[C@H](Cc2ccccc2)NC(=O)[C@@H](NC(=O)Cc2cccc3ccccc23)C(C)(C)C)cc1`, 100 nM; to `COc1cc(CN[C@@H](C(=O)N[C@H](C(=O)NCc2ccc(OC)cc2O)C(C)C)[C@H](O)[C@H](Cc2ccccc2)NC(=O)[C@@H](NC(=O)OCc2ccccc2)C(C)(C)C)cc(OC)c1`, 190 nM. In turn, `COc1ccc(CNC(=O)[C@@H](NC(=O)[C@H](NCc2ccccc2)[C@H](O)[C@H](Cc2ccccc2)NC(=O)[C@@H](NC(=O)OCc2ccccc2)C(C)(C)C)C(C)C)c(O)c1` registered an IC50 of over 20000 nM. In turn, `COc1ccc(CNC(=O)[C@@H](NC(=O)[C@H](NCc2ccccc2OC)[C@H](O)[C@H](Cc2ccccc2)NC(=O)[C@@H](NC(=O)OCc2ccccc2)C(C)(C)C)C(C)C)c(O)c1` gave an IC50 of over 20000 nM. For `COc1ccc(CNC(=O)[C@@H](NC(=O)[C@H](NCc2ccc(OC)cc2OC)[C@H](O)[C@H](Cc2ccccc2)NC(=O)[C@@H](NC(=O)OCc2ccccc2)C(C)(C)C)C(C)C)c(O)c1`, the half-maximal inhibitory concentration (IC50) worked out at 1600 nM.

Turning to `COc1ccc(CNC(=O)[C@@H](NC(=O)[C@H](NCc2cc(OC)c(OC)cc2OC)[C@H](O)[C@H](Cc2ccccc2)NC(=O)[C@@H](NC(=O)Cc2cccc3ccccc23)C(C)(C)C)C(C)C)c(O)c1`, the IC50 turned out to be 29 nM. To `COc1ccc(CNC(=O)[C@@H](NC(=O)[C@H](NCc2ccc(OC)c(OC)c2OC)[C@H](O)[C@H](Cc2ccccc2)NC(=O)[C@@H](NC(=O)OCc2ccccc2)C(C)(C)C)C(C)C)c(O)c1` belongs 100 nM; to `COc1ccc(CNC(=O)[C@@H](NC(=O)[C@H](NCc2ccc(N(C)C)cc2)[C@H](O)[C@H](Cc2ccccc2)NC(=O)[C@@H](NC(=O)OCc2ccccc2)C(C)(C)C)C(C)C)c(O)c1`, 600 nM. Under `COc1ccc(CNC(=O)[C@@H](NC(=O)[C@H](NCc2cc(OC)c(OC)c(OC)c2)[C@H](O)[C@H](Cc2ccccc2)NC(=O)[C@@H](NC(=O)Cc2cccc3ccccc23)C(C)(C)C)C(C)C)c(O)c1` stands 7 nM.
